The test system of the data set is CCRIS mutagenicity, Ames/micronucleus/aberration tests. Put plainly: CCRIS mutagenicity studies.
Setting [1] is: Test System: AMES SALMONELLA TYPHIMURIUM, Strain/Indicator: TA98, Metabolic Activation: NONE, Method: PREINCUBATION
Where [2] appears, read: Test System: AMES SALMONELLA TYPHIMURIUM, Strain/Indicator: TA100, Metabolic Activation: NONE, Method: PREINCUBATION
Where [3] appears, read: Test System: AMES SALMONELLA TYPHIMURIUM, Strain/Indicator: TA98, Metabolic Activation: NONE, Method: STANDARD PLATE.
Setting [4] is: Test System: AMES SALMONELLA TYPHIMURIUM, Strain/Indicator: TA100, Metabolic Activation: NONE, Method: STANDARD PLATE.

Calls of active or inactive are those of the source. No rule for the calls is given here.

These results are taken from PubChem BioAssay AID1259407 (Chemical Carcinogenesis Research Information System (CCRIS), 2018).

Regarding `Cc1c(N)cccc1N`, the mutagenic call by setting is: (End Point: IN VITRO CHROMOSOMAL ABERRATIONS, Test System: CHINESE HAMSTER LUNG CELLS (CHL), Metabolic Activation: NONE) “active; positive (structural changes)”; (End Point: IN VITRO CHROMOSOMAL ABERRATIONS, Test System: CHINESE HAMSTER LUNG CELLS (CHL), Metabolic Activation: RAT, LIVER, S-9, KC-400) “active; positive (structural changes)”; (End Point: IN VITRO CHROMOSOMAL ABERRATIONS, Test System: CHINESE HAMSTER OVARY CELLS (CHO), Metabolic Activation: NONE) “active; positive (structural changes)”; (End Point: IN VITRO CHROMOSOMAL ABERRATIONS, Test System: CHINESE HAMSTER OVARY CELLS (CHO), Metabolic Activation: RAT, LIVER, S-9, AROCLOR 1254) “inactive; negative”; (End Point: IN VITRO CHROMOSOMAL ABERRATIONS, Test System: CHO CELLS, Metabolic Activation: RAT, LIVER, S-9, AROCLOR 1254) “inactive; negative”; (Test System: AMES SALMONELLA TYPHIMURIUM, Strain/Indicator: TA97, Metabolic Activation: HAMSTER, LIVER, S-9, AROCLOR 1254 (10%), Method: PREINCUBATION) “active; positive”. The mutagenic call (Test System: AMES SALMONELLA TYPHIMURIUM, Strain/Indicator: TA97, Metabolic Activation: NONE, Method: PREINCUBATION) is “inactive; negative”; the mutagenic call (Test System: AMES SALMONELLA TYPHIMURIUM, Strain/Indicator: TA97, Metabolic Activation: RAT, LIVER, S-9, AROCLOR 1254 (10%), Method: PREINCUBATION) is “inactive; negative”; the mutagenic call (Test System: AMES SALMONELLA TYPHIMURIUM, Strain/Indicator: TA98, Metabolic Activation: HAMSTER, LIVER, S-9, AROCLOR 1254 (10%), Method: PREINCUBATION) was “active; positive”; the mutagenic call under setting [1] is “inactive; negative”; the mutagenic call (Test System: AMES SALMONELLA TYPHIMURIUM, Strain/Indicator: TA98, Metabolic Activation: RAT, LIVER, S-9, AROCLOR 1254 (10%), Method: PREINCUBATION) is “active; positive”; the mutagenic call (Test System: AMES SALMONELLA TYPHIMURIUM, Strain/Indicator: TA100, Metabolic Activation: HAMSTER, LIVER, S-9, AROCLOR 1254 (10%), Method: PREINCUBATION) was “active; positive”. Besides, the mutagenic call reads like this: under setting [2], “inactive; negative”; (Test System: AMES SALMONELLA TYPHIMURIUM, Strain/Indicator: TA100, Metabolic Activation: RAT, LIVER, S-9, AROCLOR 1254 (10%), Method: PREINCUBATION) “active; positive”; (Test System: AMES SALMONELLA TYPHIMURIUM, Strain/Indicator: TA1535, Metabolic Activation: HAMSTER, LIVER, S-9, AROCLOR 1254 (10%), Method: PREINCUBATION) “active; positive”; (Test System: AMES SALMONELLA TYPHIMURIUM, Strain/Indicator: TA1535, Metabolic Activation: NONE, Method: PREINCUBATION) “inactive; negative”; (Test System: AMES SALMONELLA TYPHIMURIUM, Strain/Indicator: TA1535, Metabolic Activation: RAT, LIVER, S-9, AROCLOR 1254 (5, 10 OR 30%), Method: PREINCUBATION) “inactive; negative”.

On to `O=NN(C1CCCCC1)C1CCCCC1`, for which the mutagenic call (End Point: IN VITRO MICRONUCLEUS, Test System: HUMAN LYMPHOCYTES, Metabolic Activation: NONE) was “active; positive”.

For the molecule `Cn1c([N+](=O)[O-])cnc1C1NC(CO)(CO)CO1` (stereo not drawn), the mutagenic call is “active; positive” (Test System: AMES SALMONELLA TYPHIMURIUM, Strain/Indicator: TA97, Metabolic Activation: NONE, Method: STANDARD PLATE); “active; positive” (Test System: AMES SALMONELLA TYPHIMURIUM, Strain/Indicator: TA97, Metabolic Activation: RAT, LIVER, S-9, AROCLOR 1254, Method: STANDARD PLATE); “active; positive” under setting [3]; “active; positive” (Test System: AMES SALMONELLA TYPHIMURIUM, Strain/Indicator: TA98, Metabolic Activation: RAT, LIVER, S-9, AROCLOR 1254, Method: STANDARD PLATE); “active; positive” under setting [4]; “active; positive” (Test System: AMES SALMONELLA TYPHIMURIUM, Strain/Indicator: TA100, Metabolic Activation: RAT, LIVER, S-9, AROCLOR 1254, Method: STANDARD PLATE). Further, the mutagenic call was “active; positive” (Test System: AMES SALMONELLA TYPHIMURIUM, Strain/Indicator: TA102, Metabolic Activation: NONE, Method: STANDARD PLATE) and “active; positive” (Test System: AMES SALMONELLA TYPHIMURIUM, Strain/Indicator: TA102, Metabolic Activation: RAT, LIVER, S-9, AROCLOR 1254, Method: STANDARD PLATE).

As for `O=[N+]([O-])c1cccc(CO)c1`, the mutagenic call by setting is: under setting [1], “inactive; negative”; under setting [2], “inactive; negative”; (Test System: AMES SALMONELLA TYPHIMURIUM, Strain/Indicator: TA100, Metabolic Activation: RAT, LIVER, S-9, AROCLOR 1254, Method: PREINCUBATION) “inactive; negative”.

Turning to `Cn1c2ccccc2c(=O)c2c(O)cc3c(c21)CC(C(C)(O)CCl)O3` (stereo not drawn), the mutagenic call was “active; positive” under setting [3]; “active; positive” (Test System: AMES SALMONELLA TYPHIMURIUM, Strain/Indicator: TA98, Metabolic Activation: RAT, LIVER, S-9, PHENOBARBITAL, Method: STANDARD PLATE); “active; positive” under setting [4]; “active; positive” (Test System: AMES SALMONELLA TYPHIMURIUM, Strain/Indicator: TA100, Metabolic Activation: RAT, LIVER, S-9, PHENOBARBITAL, Method: STANDARD PLATE); “inactive; negative” (Test System: AMES SALMONELLA TYPHIMURIUM, Strain/Indicator: TA1535, Metabolic Activation: NONE, Method: STANDARD PLATE); “inactive; negative” (Test System: AMES SALMONELLA TYPHIMURIUM, Strain/Indicator: TA1535, Metabolic Activation: RAT, LIVER, S-9, PHENOBARBITAL, Method: STANDARD PLATE). Also, the mutagenic call by setting is: (Test System: AMES SALMONELLA TYPHIMURIUM, Strain/Indicator: TA1538, Metabolic Activation: NONE, Method: STANDARD PLATE) “active; positive”; (Test System: AMES SALMONELLA TYPHIMURIUM, Strain/Indicator: TA1538, Metabolic Activation: RAT, LIVER, S-9, PHENOBARBITAL, Method: STANDARD PLATE) “active; positive”; (Test System: AMES SALMONELLA TYPHIMURIUM, Strain/Indicator: TA1978, Metabolic Activation: NONE, Method: STANDARD PLATE) “active; positive”; (Test System: AMES SALMONELLA TYPHIMURIUM, Strain/Indicator: TA1978, Metabolic Activation: RAT, LIVER, S-9, PHENOBARBITAL, Method: STANDARD PLATE) “inactive; negative”.

With `CC[C@H]1O[C@@H]1c1ccccc1`, the mutagenic call runs as follows: (Test System: AMES SALMONELLA TYPHIMURIUM, Strain/Indicator: TA98, Metabolic Activation: NONE, Method: PREINCUBATION (PHOSPHATE-BUFFERED KCL OR SOLUTE-FREE WATER MEDIA)) “inactive; negative”; (Test System: AMES SALMONELLA TYPHIMURIUM, Strain/Indicator: TA100, Metabolic Activation: NONE, Method: PREINCUBATION (PHOSPHATE-BUFFERED KCL OR SOLUTE-FREE WATER MEDIA)) “inactive; negative”; (Test System: AMES SALMONELLA TYPHIMURIUM, Strain/Indicator: TA104, Metabolic Activation: NONE, Method: PREINCUBATION (PHOSPHATE-BUFFERED KCL OR SOLUTE-FREE WATER MEDIA)) “inactive; negative”.

`Nc1ncc2[nH]cnc2n1`: the mutagenic call reads like this: under setting [3], “inactive; negative”; under setting [4], “inactive; negative”; (Test System: CHINESE HAMSTER V-79, Strain/Indicator: V-79 (HGPRT)/6-THIOGUANINE, Metabolic Activation: NONE, Method: STANDARD PLATE) “active; positive”; (Test System: E. COLI, Strain/Indicator: WP2, Metabolic Activation: NONE, Method: STANDARD PLATE) “active; positive”; (Test System: E. COLI, Strain/Indicator: WP2 UVRA, Metabolic Activation: NONE, Method: STANDARD PLATE) “active; positive”; (Test System: MOUSE LYMPHOMA, Strain/Indicator: L5178Y (TK+/TK-), Metabolic Activation: NONE, Method: SUSPENSION/PLATE) “active; positive”.
